Experiment in all cases: NCI anticancer screen, dose series, 48 h
Assay [1] has as its system CAKI-1 renal.
Assay [2] deals with M19-MEL melanoma.
In assay [3] the test system is DMS 114 small cell lung.
Assay [4] concerns LXFL 529 NSCLC.
Assay [5] deals with KM20L2 colon.
The test system of assay [6] is HOP-18 NSCLC.
Assay [7] deals with DMS 273 small cell lung.
In assay [8] the test system is DLD-1 colon.
Assay [9] has as its system SNB-78 CNS.
Assay [10] deals with RXF-631 renal.
The subject of assay [11] is XF 498 CNS.

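Growth conditions: 96-well plates. Treatment: test compound, 48 hours, 5 concentrations. Analysis: linear interpolation between bracketing concentrations; unreached endpoints set to highest concentration. GI50 = concentration required for 50% inhibition of growth. TGI is the concentration that stops growth completely.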

As for `CCOC(=O)C1=C(C)N(Cc2ccc(Cl)cc2Cl)C2(O)C(OC)CC(=O)C3C(=O)N(c4ccccc4)C(=O)C132` (centres undefined), the TGI in assay [1] is 19.5 µM.
In turn, `C[C@@H]1O[C@@H]2OCC[C@@H]2C2=C1C(=O)c1ccccc1C2=O` showed a TGI in assay [1] of 29.8 µM.
`N=c1nc(N)nc(N)n1-c1ccc(S(N)(=O)=O)cc1` yielded a TGI in assay [1] of over 100 µM.
In [1], `CC(=O)NC1C(OCc2ccccc2)OC(CO)C(O)C1OCC(=O)NC(C)C(=O)NC(CCC(=O)OCCNC(=O)c1cccc2cc3ccccc3nc12)C(N)=O` (centres undefined) showed a TGI of 30.2 µM.
Turning to `CCOC(=O)C1=C(C)N2CCCOC2(C)C(C(=O)OC)C1c1cccc([N+](=O)[O-])c1` (centres undefined), the TGI in [2], in [3], in assay [4], in assay [5] and in assay [1] was over 100 µM in each case.
The compound `Cc1c2ccccc2nc2[nH]c3ccncc3c12` gave a TGI in [1] of 96.7 µM.
On to `NC(Cc1ccc2oc3cc(=O)c4ccccc4c-3nc2c1)C(=O)O` (centres undefined), for which the TGI in [6] is 77.7 µM; in assay [3], 41.1 µM; in [4], over 100 µM; in assay [5] it was over 100 µM; in [1], over 97.7 µM; in assay [7], over 60.1 µM. In addition, the TGI in assay [8] was over 66.6 µM; in [9], over 100 µM.
On to `CN(C)CCNc1ccc2nnn3c4ccc(Cl)cc4c(=O)c1c23`, for which the TGI in assay [2] is 15.1 µM; in assay [10], 16.4 µM; in assay [4], 19.2 µM; in assay [5] it was 16 µM; in assay [1] it was 11 µM; in assay [8], 27.7 µM. In addition, the TGI in assay [9] turned out to be 34.9 µM; in assay [11], 23.8 µM.
For `COc1cc2c(cc1O)CCN[C@@]21CS[C@H]2c3c(OC(C)=O)c(C)c4c(c3C(COC1=O)N1C2C2c3c(cc(C)c(OC)c3O)CC([C@@H]1O)N2C)OCO4` (some centres undefined), the TGI in assay [2] is under 1e-06 µM; in assay [4] it was 4.31e-05 µM; in [5], 6.01e-05 µM; in assay [1], 0.0622 µM; in assay [7], under 1e-06 µM; in assay [8], 0.0013 µM. In addition, the TGI in assay [11] was under 1e-06 µM. Also, the GI50 in assay [1] was 0.00269 µM.
Take `O=S(=O)(O)c1cc(O)c2c(O)c(N=Nc3ccc(/C=C/c4ccc(N=Nc5c(S(=O)(=O)O)cc6cc(S(=O)(=O)O)cc(O)c6c5O)cc4S(=O)(=O)O)c(S(=O)(=O)O)c3)c(S(=O)(=O)O)cc2c1`: the TGI in assay [2], in [6], in assay [3], in assay [4], in assay [5] and in assay [1] was over 100 µM in each case. Further, the TGI in assay [7], in assay [8] and in assay [11] was over 100 µM each time.
In [1], `N=C(N)SC1c2ccccc2-c2cc([N+](=O)[O-])ccc21` (centres undefined) returned a TGI of 19.3 µM.
Compound `CN[C@@H]1[C@H](O)[C@H](NC)[C@H]2O[C@@]3(O)C(=O)C[C@@H](C)O[C@H]3O[C@@H]2[C@H]1O` registered a TGI in [1] of over 100 µM.
`Nc1nc(SCCC/C=C/B(O)O)nc2c1ncn2C1OC(CO)C(O)C1O` (centres undefined): the TGI in assay [2], in assay [4], in [5], in assay [7], in [8] and in assay [9] was over 243 µM in each case. In assay [11], this compound showed a TGI of over 243 µM.
Compound `O=[N+]([O-])/C=C/c1cccc(F)c1` registered a TGI in assay [1] of 29.9 µM.
As to `C=C(/C=C/C=C(/CCC=C(C)C)COC(C)=O)[C@@H]1CC[C@]2([C@H](CCCO)/C(=C(/C)C=O)CC[C@]2(C)O)[C@@H]1O`, the TGI in [2] was determined as 33.3 µM; in [6], 23.7 µM; in assay [3], 28.8 µM; in [5], 27.9 µM; in assay [1], 17.5 µM; in [7], 21.1 µM. In assay [8], this compound displayed a TGI of 30.4 µM.
In the case of `C[n+]1ccccc1/C=C/c1ccc2c(c1)OCO2`, the TGI in [1] was over 10 µM.
On the same count and under the same terms, as for `NC(=O)c1nnc2cc(F)c(F)cc2c1N`, the figure is over 100 µM.
As to `COc1cc2c(cc1OC)C(C1(O)CCCCC1)NCC2` (centres undefined), the TGI in assay [2], in [4], in assay [5], in assay [7], in assay [8] and in [11] was over 100 µM throughout.
Compound `CC1(C)[C@@H]2C[C@H]1C(Cc1ccccc1C[C@H]1c3cc(-c4ccccn4)ncc3[C@H]3C[C@@H]1C3(C)C)c1cc(-c3ccccn3)ncc12` (some centres undefined) displayed a TGI in assay [1] of over 40.8 µM.
Regarding `Nc1nc(Cl)cc(NCCCCO)n1`, the TGI in assay [2], in assay [10], in [3], in assay [4], in assay [5] and in [7] was over 100 µM throughout. The TGI in assay [8] and in assay [9] was over 100 µM in each case.
As for `CCCNCC(O)/C=C/[Si](C)(C)C` (centres undefined) (tested in a mixture with another compound), the TGI in assay [2], in assay [6], in assay [10], in assay [3], in assay [4] and in assay [5] was over 100 µM in each case. In addition, the figures for the TGI in [8], in assay [9] and in assay [11] were over 100 µM, over 100 µM and 74.8 µM, respectively.
On to `Cc1ccccc1N=Nc1ccc(N=Nc2c(O)ccc3cc(S(=O)(=O)O)cc(S(=O)(=O)O)c23)c(C)c1`, for which the TGI in assay [1] was over 100 µM.
In assay [1], `Cc1nnc2sc(-c3ccc(N)cc3)nn12` registered a TGI of over 100 µM.
As for `Cc1c(Cl)c(S(N)(=O)=O)cc(S(N)(=O)=O)c1NC(=O)c1ccc(Cl)cc1`, the TGI in assay [1] is over 100 µM.

The record behind these values is PubChem BioAssay (NCI).
